# Test results as given in PMC7419559 (Scientific Reports, 2020).
# Like-named read-outs stand apart in the source and are kept apart here.
# Assays:
# G9a = target: T1, G9a (Homo sapiens, UniProt Q96KQ7); experiment: AlphaLISA based G9a methyltransferase inhibition screening (H3K9 dimethylation); type: biochemical
# T1 construct: purchased Sigma-Aldrich
# T1 sequence (Q96KQ7 1-1210): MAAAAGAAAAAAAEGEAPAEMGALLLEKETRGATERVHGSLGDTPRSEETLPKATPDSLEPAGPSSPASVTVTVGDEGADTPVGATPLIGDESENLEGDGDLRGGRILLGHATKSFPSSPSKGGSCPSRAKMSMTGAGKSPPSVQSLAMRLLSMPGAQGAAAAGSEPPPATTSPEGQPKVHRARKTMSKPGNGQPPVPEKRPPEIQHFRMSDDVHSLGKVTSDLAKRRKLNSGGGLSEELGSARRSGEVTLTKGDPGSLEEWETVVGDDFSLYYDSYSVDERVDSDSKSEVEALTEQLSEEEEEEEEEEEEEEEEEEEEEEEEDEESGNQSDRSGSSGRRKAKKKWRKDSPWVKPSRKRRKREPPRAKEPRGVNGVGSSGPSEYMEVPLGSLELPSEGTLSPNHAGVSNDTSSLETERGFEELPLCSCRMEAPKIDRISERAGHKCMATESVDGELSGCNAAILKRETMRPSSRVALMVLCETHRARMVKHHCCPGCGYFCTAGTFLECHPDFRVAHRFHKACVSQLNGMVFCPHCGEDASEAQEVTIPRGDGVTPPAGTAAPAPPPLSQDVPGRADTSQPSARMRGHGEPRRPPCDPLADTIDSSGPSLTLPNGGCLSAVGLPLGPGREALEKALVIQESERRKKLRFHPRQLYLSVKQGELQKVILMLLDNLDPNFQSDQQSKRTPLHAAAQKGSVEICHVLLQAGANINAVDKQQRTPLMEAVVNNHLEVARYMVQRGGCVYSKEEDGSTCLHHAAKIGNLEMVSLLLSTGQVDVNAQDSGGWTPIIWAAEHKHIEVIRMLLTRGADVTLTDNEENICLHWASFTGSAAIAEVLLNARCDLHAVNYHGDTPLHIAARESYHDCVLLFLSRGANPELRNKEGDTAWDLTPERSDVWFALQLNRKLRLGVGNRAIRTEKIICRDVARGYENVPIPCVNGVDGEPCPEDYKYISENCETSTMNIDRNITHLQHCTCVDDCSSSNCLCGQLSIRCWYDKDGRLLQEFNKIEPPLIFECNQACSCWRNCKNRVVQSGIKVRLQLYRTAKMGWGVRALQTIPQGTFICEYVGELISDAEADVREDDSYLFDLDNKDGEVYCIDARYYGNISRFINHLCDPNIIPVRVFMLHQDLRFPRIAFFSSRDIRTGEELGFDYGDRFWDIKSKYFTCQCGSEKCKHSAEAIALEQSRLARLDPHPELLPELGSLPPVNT
# Method: Inhibition of G9a was examined in an AlphaLISA based format with protocols provided by PerkinElmer. In brief, compounds were incubated for 30 min on white 384-well microplates at the indicated concentration and with 5 nM G9a (Supplementary Information, Figure S1), 100 nM histone H3 (1–21) fragment and 15 µM SAM in assay buffer (50 mM Tris–HCl (pH = 9.0); 50 mM NaCl, 1 mM dithiothreitol, 0.01% Tween-20). Incubation was terminated by addition of anti-H3K9me2 acceptor beads in provided detection buffer. After incubating the mixture for 60 min, streptavidin-coated donor beads were added to the mix for additional 30 min. Luminescence was then measured using the AlphaLISA luminescence filter of an Infinite M1000pro multiplate reader (Tecan, Maennedorf, Switzerland) for 1,000 ms (integration time).
# For experiments employing radiolabeled ligands, raw data that were measured as counts-per-minute [c.p.m.] were reduced by non-specific binding. For affinity measurements, such results were fitted to least-squares method “One site competition” of GraphPad Prism version 7.0 (La Jolla, CA, United States) and final values were calculated as means [95% confidence interval]. […] Data were stated as means ± s.d. […] Data were stated as means ± s.d. with the indicated number of replicates. For CRE-Luc assays, data were normalized to luminescence derived by forskolin containing samples (= 100%) and minimum luminescence measured in samples containing forskolin + N^α-methylhistamine (10 µM) (= 0%). Data from both experiments were globally fit to the “Gaddum/Schild EC50 shift” model of GraphPad Prism and were stated as means [95% confidence interval].
# [1] = target: T2, human isoform of histamine H3 receptor (hH3R) (Homo sapiens, UniProt Q9Y5N1); experiment: [3H]Nα-methylhistamine displacement at hH3R, membranes of transfected HEK-293T cells; type: binding
# T2 construct: expressed in transfected cells; host or cells: HEK-293T
# T2 sequence (Q9Y5N1 whole entry, canonical isoform): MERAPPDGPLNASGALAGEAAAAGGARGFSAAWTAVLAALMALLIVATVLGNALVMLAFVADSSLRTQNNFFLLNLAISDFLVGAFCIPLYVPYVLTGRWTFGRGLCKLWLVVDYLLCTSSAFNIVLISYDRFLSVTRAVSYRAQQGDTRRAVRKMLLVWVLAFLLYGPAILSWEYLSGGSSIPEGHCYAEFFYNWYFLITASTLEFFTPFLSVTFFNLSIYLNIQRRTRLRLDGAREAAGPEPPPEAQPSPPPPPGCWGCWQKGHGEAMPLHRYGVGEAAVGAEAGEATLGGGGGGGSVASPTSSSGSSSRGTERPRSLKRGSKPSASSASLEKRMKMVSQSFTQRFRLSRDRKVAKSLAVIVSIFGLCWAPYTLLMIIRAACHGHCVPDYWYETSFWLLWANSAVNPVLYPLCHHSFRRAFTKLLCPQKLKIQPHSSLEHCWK
# Method: NM_007232.3) was determined in radioligand displacement studies at membrane preparations of transfected HEK-293 T cells. […] The workflow to terminate incubation and measurement of bound radioligand was identical for both experimental set-ups. Briefly, samples were filtrated from microplates onto GF/B filters presoaked with 0.3% polyethyleneimine solution using a 96-well cell harvester. Filter mats were washed three times with water at 4 °C, dried for 60 min (54 °C), soaked with scintillation liquid (Betaplate Scint, PerkinElmer), sealed and subjected to scintillation counting. For experiments employing radiolabeled ligands, raw data that were measured as counts-per-minute [c.p.m.] were reduced by non-specific binding. For affinity measurements, such results were fitted to least-squares method “One site competition” of GraphPad Prism version 7.0 (La Jolla, CA, United States) and final values were calculated as means [95% confidence interval]. […] Data were stated as means ± s.d. […] Data were stated as means ± s.d. with the indicated number of replicates. […] Data from both experiments were globally fit to the “Gaddum/Schild EC50 shift” model of GraphPad Prism and were stated as means [95% confidence interval].
# [2] = target: T3, rat isoform of H3R (rH3R) (Rattus norvegicus, UniProt Q9QYN8); experiment: CRE-Luc reporter gene Schild assay at rH3R in HEK-293T cells; type: cell-based
# T3 construct: expressed in transfected cells; host or cells: HEK-293T
# T3 sequence (Q9QYN8 whole entry, canonical isoform): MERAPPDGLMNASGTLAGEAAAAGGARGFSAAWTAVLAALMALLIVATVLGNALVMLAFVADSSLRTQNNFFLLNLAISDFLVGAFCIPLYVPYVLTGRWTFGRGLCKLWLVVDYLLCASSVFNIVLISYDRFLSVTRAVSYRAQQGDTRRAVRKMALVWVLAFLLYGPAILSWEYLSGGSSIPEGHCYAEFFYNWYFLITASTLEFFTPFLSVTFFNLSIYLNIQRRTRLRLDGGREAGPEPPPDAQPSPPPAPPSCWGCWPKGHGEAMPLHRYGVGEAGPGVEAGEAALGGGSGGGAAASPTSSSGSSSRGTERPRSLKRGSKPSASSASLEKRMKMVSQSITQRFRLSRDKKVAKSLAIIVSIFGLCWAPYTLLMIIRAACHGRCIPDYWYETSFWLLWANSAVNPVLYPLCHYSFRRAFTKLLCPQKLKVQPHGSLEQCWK
# Method: The mixture was incubated for 5 h under culture conditions. […] Lysed homogenate was transferred into white microplates. […] For experiments employing radiolabeled ligands, raw data that were measured as counts-per-minute [c.p.m.] were reduced by non-specific binding. […] Data were stated as means ± s.d. […] Data were stated as means ± s.d. with the indicated number of replicates.
# Spindlin1 = Spindlin1 (Homo sapiens, UniProt Q9Y657); experiment: Spindlin1 inhibition, fluorescence polarization displacement assay; type: binding; conditions: for Spindlin1 inhibition: fluorescence polarization-based screening
# Spindlin1, sequence (Q9Y657 whole entry, species assumed): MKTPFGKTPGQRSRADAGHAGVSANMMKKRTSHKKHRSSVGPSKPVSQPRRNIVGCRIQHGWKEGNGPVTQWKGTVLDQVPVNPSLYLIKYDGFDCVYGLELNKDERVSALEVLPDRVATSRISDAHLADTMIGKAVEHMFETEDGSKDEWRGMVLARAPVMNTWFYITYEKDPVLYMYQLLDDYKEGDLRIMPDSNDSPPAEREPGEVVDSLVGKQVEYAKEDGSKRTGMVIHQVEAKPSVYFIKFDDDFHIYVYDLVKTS
# Method: Spindlin1 inhibition was determined using the fluorescence polarization displacement assay described by Wagner et al.[37] For the IC50 values, 12 concentrations were measured in triplicates.
Spindlin1 inhibition (Spindlin1),SMILES,inhibition at 10 µM (G9a),other results
,COc1cc2c(cc1OCCCN1CCCC1)N=C(N)C21CCC1 [A-366],100 ± 0.04%,"Ki ([1]; [3H]Nα-methylhistamine 2 nM, 90 min, mean [95% CI], read-out: hH3R affinity Ki [CI95%]): 0.017 µM; Kb [2]: 0.015 µM; Schild-plot slope ([2]; rH3R, mean ± 95% confidence interval, not significantly different from unity): 0.79 ± 0.45"
,COc1cc2c(NC3CCN(C(C)C)CC3)nc(N3CCC(F)(F)CC3)nc2cc1OCCCN1CCCC1 [UNC-0642],99.9 ± 0.09%,"IC50 (Spindlin1; fluorescence polarization, 12 concentrations in triplicates): 2.7 µM; Ki [1]: 0.0018 µM"
No inhibition,O=C(c1ccc(OCCCc2cnc[nH]2)cc1)C1CC1 [Ciproxifan],,
No inhibition,O=C(c1ccc(OCCCN2CCCCC2)cc1)C1CC1 [UCL-2190],13.9 ± 9.3%,
No inhibition,Clc1ccc(CCCOCCCN2CCCCC2)cc1 [Pitolisant],,
